O=C(O)c1cccnc1
solubility (mole fraction)
Details	in DMSO	in acetone	in ethanol	in ethyl acetate	in isopropanol	in methanol	in n-butanol	in n-propanol	in water
283.15 K	0.0437	0.00062	0.00202	0.00033	0.00177	0.00238	0.0014	0.00179	0.00165
293.15 K	0.0576	0.00104	0.00312	0.00054	0.00276	0.00382	0.00231	0.00285	0.00215
303.15 K	0.0722	0.00166	0.00468	0.00093	0.00418	0.00587	0.00351	0.00435	0.00279
313.15 K	0.0889	0.00262	0.00683	0.00149	0.00617	0.00889	0.00554	0.00641	0.00363
323.15 K	0.107	0.00408	0.00978	0.00246	0.00891	0.0129	0.00855	0.00923	0.00458
333.15 K	0.127	–	0.0136	0.00401	0.0125	–	0.0123	0.0131	0.00576
343.15 K	0.15	–	0.0188	0.00603	0.0172	–	0.0178	0.0186	0.00704
353.15 K	–	–	–	–	–	–	0.0253	–	0.00872
363.15 K	–	–	–	–	–	–	–	–	0.0107
